What all share (type): functional, cell-based
The target in data set [1] is T1, ATP-dependent translocase ABCB1 (Rattus norvegicus, UniProt P43245). Put plainly: TP_TRANSPORTER: increase in Doxorubicin intracellular accumulation (Doxorubicin: 17.2 uM, Flezelastine: 3 uM) in C6 1V cells.
Data set [2] has as its target Multidrug resistance protein 1a (Rattus norvegicus) (UniProt Q6PSM0). Put plainly: TP_TRANSPORTER: increase in Doxorubicin intracellular accumulation (Doxorubicin: 17.2 uM, Flezelastine: 10 uM) in C6 0.5 cells.
Data set [3] concerns the target T1, ATP-dependent translocase ABCB1. Put plainly: TP_TRANSPORTER: increase in Doxorubicin intracellular accumulation (Doxorubicin: 17.2 uM, Azelastine: 10 uM) in C6 1V cells.
The target of data set [4] is Multidrug resistance protein 1a (Rattus norvegicus) (UniProt Q6PSM0). Kind of data set: TP_TRANSPORTER: increase in Doxorubicin intracellular accumulation (Doxorubicin: 17.2 uM, Azelastine: 30 uM) in C6 0.5 cells.
Multidrug resistance protein 1a (Rattus norvegicus), sequence (Q6PSM0 as listed by the source): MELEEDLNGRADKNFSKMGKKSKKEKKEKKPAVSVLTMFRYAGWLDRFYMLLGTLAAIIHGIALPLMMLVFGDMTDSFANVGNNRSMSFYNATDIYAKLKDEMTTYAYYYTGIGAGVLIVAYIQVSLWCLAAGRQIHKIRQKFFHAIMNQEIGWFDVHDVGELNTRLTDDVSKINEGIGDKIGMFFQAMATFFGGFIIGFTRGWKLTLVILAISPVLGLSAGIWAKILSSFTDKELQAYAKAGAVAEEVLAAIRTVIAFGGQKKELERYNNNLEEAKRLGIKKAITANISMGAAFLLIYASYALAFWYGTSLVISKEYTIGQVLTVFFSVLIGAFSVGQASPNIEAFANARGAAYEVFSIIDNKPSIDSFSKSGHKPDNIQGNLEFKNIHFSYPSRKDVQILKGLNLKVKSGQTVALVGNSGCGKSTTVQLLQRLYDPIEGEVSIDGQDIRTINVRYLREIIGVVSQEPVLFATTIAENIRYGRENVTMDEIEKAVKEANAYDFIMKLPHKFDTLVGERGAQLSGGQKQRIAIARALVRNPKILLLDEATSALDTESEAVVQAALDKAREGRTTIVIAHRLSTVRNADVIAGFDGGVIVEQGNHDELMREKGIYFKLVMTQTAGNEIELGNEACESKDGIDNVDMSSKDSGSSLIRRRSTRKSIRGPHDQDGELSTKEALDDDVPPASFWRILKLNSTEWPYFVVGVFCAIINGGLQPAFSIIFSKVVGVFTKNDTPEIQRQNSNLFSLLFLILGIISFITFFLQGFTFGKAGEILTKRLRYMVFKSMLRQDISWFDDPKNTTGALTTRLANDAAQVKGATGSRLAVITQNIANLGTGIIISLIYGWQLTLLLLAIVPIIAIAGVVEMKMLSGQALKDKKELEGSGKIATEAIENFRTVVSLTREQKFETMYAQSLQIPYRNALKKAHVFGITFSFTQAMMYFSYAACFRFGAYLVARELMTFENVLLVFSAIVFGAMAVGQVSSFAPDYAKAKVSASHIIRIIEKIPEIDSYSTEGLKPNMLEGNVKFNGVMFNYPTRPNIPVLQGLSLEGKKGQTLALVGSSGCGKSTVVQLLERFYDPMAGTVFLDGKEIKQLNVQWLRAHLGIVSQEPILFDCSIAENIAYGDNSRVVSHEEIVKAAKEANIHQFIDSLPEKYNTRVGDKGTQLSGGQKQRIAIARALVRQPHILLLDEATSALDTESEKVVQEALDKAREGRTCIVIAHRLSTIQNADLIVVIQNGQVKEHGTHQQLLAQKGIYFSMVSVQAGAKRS

T1 sequence (P43245 whole entry): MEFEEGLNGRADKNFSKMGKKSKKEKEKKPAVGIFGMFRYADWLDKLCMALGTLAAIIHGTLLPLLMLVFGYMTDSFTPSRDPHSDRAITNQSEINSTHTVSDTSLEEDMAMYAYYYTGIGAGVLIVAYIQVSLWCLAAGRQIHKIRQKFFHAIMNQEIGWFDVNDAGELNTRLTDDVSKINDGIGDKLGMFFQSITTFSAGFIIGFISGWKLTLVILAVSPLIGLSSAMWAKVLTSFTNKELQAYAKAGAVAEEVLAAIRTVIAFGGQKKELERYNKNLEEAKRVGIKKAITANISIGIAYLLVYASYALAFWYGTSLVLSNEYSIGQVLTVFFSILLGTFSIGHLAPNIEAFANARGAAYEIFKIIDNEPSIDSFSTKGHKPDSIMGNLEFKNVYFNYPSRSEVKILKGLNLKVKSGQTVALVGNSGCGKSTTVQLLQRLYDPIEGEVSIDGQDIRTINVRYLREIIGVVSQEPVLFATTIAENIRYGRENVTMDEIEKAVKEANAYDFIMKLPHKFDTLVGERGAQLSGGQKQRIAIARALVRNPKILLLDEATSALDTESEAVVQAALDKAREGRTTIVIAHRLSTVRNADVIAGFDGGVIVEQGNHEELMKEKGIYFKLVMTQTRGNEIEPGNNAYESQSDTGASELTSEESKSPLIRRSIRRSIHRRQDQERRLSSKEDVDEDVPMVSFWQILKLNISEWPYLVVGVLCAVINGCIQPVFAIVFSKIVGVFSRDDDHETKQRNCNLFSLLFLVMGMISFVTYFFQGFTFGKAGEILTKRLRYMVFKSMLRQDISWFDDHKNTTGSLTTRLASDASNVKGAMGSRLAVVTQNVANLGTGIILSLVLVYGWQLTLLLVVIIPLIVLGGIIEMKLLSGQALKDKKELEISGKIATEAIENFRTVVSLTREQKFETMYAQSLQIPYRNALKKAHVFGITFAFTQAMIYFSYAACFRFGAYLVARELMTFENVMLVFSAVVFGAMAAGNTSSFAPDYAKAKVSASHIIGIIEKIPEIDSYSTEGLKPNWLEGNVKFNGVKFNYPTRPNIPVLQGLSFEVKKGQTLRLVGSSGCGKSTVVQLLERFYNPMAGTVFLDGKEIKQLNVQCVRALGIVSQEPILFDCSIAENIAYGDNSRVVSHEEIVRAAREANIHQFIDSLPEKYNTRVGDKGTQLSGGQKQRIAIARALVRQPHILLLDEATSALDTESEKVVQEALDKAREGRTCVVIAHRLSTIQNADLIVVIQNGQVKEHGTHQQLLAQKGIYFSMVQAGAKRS

As for `O=c1c2ccccc2c(Cc2ccc(F)cc2)nn1C1CCCN(CCc2ccccc2)CC1` (centres undefined) [FLEZELASTINE], the Activity result in data set [1] and in data set [2] was “inhibitor [+]” each time.
In the case of `CN1CCCC(n2nc(Cc3ccc(Cl)cc3)c3ccccc3c2=O)CC1` (centres undefined) [AZELASTINE], the Activity entry in data set [3] and in data set [4] was “inhibitor [+]” in each case.

These data come from ChEMBL document CHEMBL2073885, “Azelastine and flezelastine as reversing agents of multidrug resistance: pharmacological and molecular studies” (Biochem Pharmacol, 1995).
